# Where two headings read alike, the source gives them in different places.
# Experiments:
# [1] = test system: S. aureus ATCC 25923; assay: Antibacterial activity, pre-exposure (planktonic cells and biofilm formation); type: cell-based, Staphylococcus aureus; settings: for MIC / inhibition at 5 µM / inhibition at 10 µM / inhibition at 15 µM / inhibition at 25 µM: Staphylococcus aureus, ATCC25923; for inhibition at 5 µM / inhibition at 10 µM / inhibition at 15 µM / inhibition at 25 µM / Average inhibition %, biofilms viability / Average inhibition %, planktonic cells viability: pre-exposure, ± SD
# Method: (§1) The antimicrobial activity was assessed in a similar way for the initial screening and the dose–response evaluation against different bacterial strains. With the exception of the post-exposure experiment, the compounds were added to the wells along with the bacteria to test the ability of compounds to prevent bacterial growth and biofilm formation (pre-exposure). The compounds were diluted in DMSO and plated directly in 96-well plates before adding the bacterial culture, and plates were incubated for 18 h under aerobic conditions at 37 °C with shaking (220 rpm). The antibacterial activity of the compounds was assessed on planktonic cells and biofilms separately using two different measurements for each: optical density (turbidity) and resazurin reduction (viability) on planktonic cells and resazurin followed by a crystal violet staining assay (total biomass) on biofilms, as described in the following sections.
# (§2) The resazurin staining was performed according to the protocol previously optimized with a few modifications.[46] Briefly, the planktonic solution was first transferred into a new 96-well plate and the OD of the planktonic solution was measured using a Varioskan LUX Multimode microplate reader (Thermo Scientific, Vantaa, Finland). Then, 10 μL of a 400 μM resazurin (R7017, Sigma-Aldrich, St. Louis, MO) diluted in phosphate-buffered saline (PBS) (Thermo Fisher Scientific, MA) was added to the wells (for a final resazurin concentration of 20 μM). The plate was incubated in the dark with shaking (220 rpm) for about 3–10 min at room temperature with S. aureus and A. baumannii (until the bacteria controls turned pink) or for 20 min at 37 °C with P. aeruginosa. Fluorescence was measured at λex = 560 nm and λem = 590 nm using the top optics of the Varioskan LUX Multimode microplate reader. The planktonic plate was then discarded. The original challenge plate containing the biofilms was washed once with PBS, and 200 μL of a 20 μM resazurin solution was added to the wells. The plate was incubated in the dark at 37 °C with shaking (220 rpm) for 30 min with S. aureus, 60 min with A. baumannii, and 90 min with P. aeruginosa. Fluorescence was measured as described for the planktonic solution. The biofilms were next treated with crystal violet staining.
# (§3) After removing the resazurin solution from the plate, biofilms were fixed with ethanol 100% for 15 min at room temperature. Ethanol was then removed, and the biofilms were left to air-dry completely at RT. Crystal violet, diluted to 1:100 in deionized water from the 2.3% commercial solution (HT90132, Sigma-Aldrich, St. Louis, MO), was added to the wells and, after a 5 min incubation with the dye, the biofilms were washed twice with deionized water and left to air-dry for about 10 min. The dye was solubilized in ethanol 100% for 1 h, and absorbance was measured at 595 nm using a Multiskan Sky microplate spectrophotometer (Thermo Scientific, Vantaa, Finland).
# [2] = test system: S. aureus ATCC 25923; assay: Antibacterial activity, post-exposure on preformed 18-h-old biofilms; type: cell-based, Staphylococcus aureus; settings: ± SD; for inhibition at 25 µM / inhibition at 50 µM / inhibition at 100 µM / inhibition at 200 µM: Staphylococcus aureus; for inhibition at 25 µM: ATCC25923, 25 µM; for inhibition at 50 µM: ATCC25923, 50 µM; for inhibition at 100 µM: ATCC25923, 100 µM; for inhibition at 200 µM: ATCC25923, 200 µM
# Method: For the post-exposure experiment, bacteria were grown with no compounds in the same conditions for 18 h, after which the media was changed, and compounds were added on the preformed biofilms. The plates were then incubated in the same conditions for an additional 24 h before proceeding to the staining assays.
# as §2, §3
# [3] = test system: A. baumannii NCTC 13423; assay: Antibacterial activity, pre-exposure; type: cell-based, Acinetobacter baumannii; settings: for Average inhibition %, biofilms viability / Average inhibition %, planktonic cells viability / inhibition at 10 µM / inhibition at 15 µM / inhibition at 25 µM / inhibition at 50 µM: A. baumannii NCTC 13423, pre-exposure, ± SD; for inhibition at 10 µM / inhibition at 15 µM / inhibition at 25 µM / inhibition at 50 µM / MIC: Acinetobacter baumannii, NCTC13423
# Method: as §1, §2, §3
# [4] = test system: P. aeruginosa ATCC 9027; assay: Antibacterial activity, pre-exposure; type: cell-based, Pseudomonas aeruginosa; settings: for Average inhibition %, biofilms viability / Average inhibition %, planktonic cells viability / inhibition at 50 µM / inhibition at 100 µM / inhibition at 150 µM / inhibition at 200 µM: P. aeruginosa ATCC 9027, pre-exposure, ± SD; for inhibition at 50 µM / inhibition at 100 µM / inhibition at 150 µM / inhibition at 200 µM: Pseudomonas aeruginosa, ATCC9027
# Method: as §1, §2, §3
# [5] = 10 µM, read-out: Average inhibition %, biofilms biomass
# [6] = 10 µM, read-out: Average inhibition %, planktonic cells turbidity
# [7] = 15 µM, read-out: Average inhibition %, biofilms biomass
# [8] = 15 µM, read-out: Average inhibition %, planktonic cells turbidity
# [9] = 25 µM, read-out: Average inhibition %, biofilms biomass
# [10] = 25 µM, read-out: Average inhibition %, planktonic cells turbidity
# [11] = read-out: Average inhibition %, biofilms biomass
# [12] = read-out: Average inhibition %, planktonic cells turbidity
# [13] = 50 µM, read-out: Average inhibition %, biofilms biomass
# [14] = 50 µM, read-out: Average inhibition %, planktonic cells turbidity
structure (smiles),measurement,setting,value
"CCCCCC/C=C/c1ccc(CCC(N)(CO)CO)cc1 [Compound 42, (E)-2-Amino-2-[4-(oct-1-en-1-yl)phenethyl]propane-1,3-diol]",MIC,"[1]; lowest concentration with no visible growth (>90% inhibition of turbidity and viability of planktonic cells), 18 h, read-out: MIC S. aureus ATCC 25923",15 to 25 µM
same,inhibition at 5 µM,"[1]; 5 µM, read-out: Average inhibition %, biofilms biomass",41 ± 12.1%
same,inhibition at 5 µM,"[1]; 5 µM, read-out: Average inhibition %, planktonic cells turbidity",18.8 ± 12.6%
same,inhibition at 10 µM,[1]; [5],62.5 ± 24.1%
same,inhibition at 10 µM,[1]; [6],53.3 ± 32.3%
same,inhibition at 15 µM,[1]; [7],80.5 ± 26.4%
same,inhibition at 15 µM,[1]; [8],84.6 ± 26.1%
same,inhibition at 25 µM,[1]; [9],95.1 ± 0.5%
same,inhibition at 25 µM,[1]; [10],99.4 ± 0.5%
same,MIC,[1]; read-out: MIC (S. aureus),15 to 25 µM
same,"Average inhibition %, biofilms viability",[1]; 5 µM,16.3 ± 4.8%
same,"Average inhibition %, planktonic cells viability",[1]; 5 µM,1.7 ± 3%
same,"Average inhibition %, biofilms viability",[1]; 10 µM,55.9 ± 31%
same,"Average inhibition %, planktonic cells viability",[1]; 10 µM,31.6 ± 54.9%
same,"Average inhibition %, biofilms viability",[1]; 15 µM,81.1 ± 32.3%
same,"Average inhibition %, planktonic cells viability",[1]; 15 µM,66.4 ± 57.5%
same,"Average inhibition %, biofilms viability",[1]; 25 µM,99.2 ± 0.8%
same,"Average inhibition %, planktonic cells viability",[1]; 25 µM,99.6 ± 0.2%
same,"Average inhibition %, biofilms viability",[2]; 25 µM,20 ± 6.1%
same,"Average inhibition %, planktonic cells viability",[2]; 25 µM,2.8 ± 5%
same,"Average inhibition %, biofilms viability",[2]; 50 µM,42 ± 16%
same,"Average inhibition %, planktonic cells viability",[2]; 50 µM,19.1 ± 18.9%
same,"Average inhibition %, biofilms viability",[2]; 100 µM,48.3 ± 2.3%
same,"Average inhibition %, planktonic cells viability",[2]; 100 µM,68.7 ± 18.2%
same,"Average inhibition %, biofilms viability",[2]; 200 µM,44.8 ± 10.4%
same,"Average inhibition %, planktonic cells viability",[2]; 200 µM,35.1 ± 44.8%
same,inhibition at 25 µM,[2]; [11],39 ± 2.5%
same,inhibition at 25 µM,[2]; [12],12 ± 9.6%
same,inhibition at 50 µM,[2]; [11],54.1 ± 1.9%
same,inhibition at 50 µM,[2]; [12],29.7 ± 16.3%
same,inhibition at 100 µM,[2]; [11],54.8 ± 5.9%
same,inhibition at 100 µM,[2]; [12],56.9 ± 19.5%
same,inhibition at 200 µM,[2]; [11],59.8 ± 21%
same,inhibition at 200 µM,[2]; [12],46.2 ± 27.3%
same,"Average inhibition %, biofilms viability",[3]; 10 µM,0.4 ± 0.3%
same,"Average inhibition %, planktonic cells viability",[3]; 10 µM,13.5 ± 3.1%
same,"Average inhibition %, biofilms viability",[3]; 15 µM,12.8 ± 7.2%
same,"Average inhibition %, planktonic cells viability",[3]; 15 µM,6 ± 6.6%
same,"Average inhibition %, biofilms viability",[3]; 25 µM,47.6 ± 37.1%
same,"Average inhibition %, planktonic cells viability",[3]; 25 µM,33.1 ± 52.5%
same,"Average inhibition %, biofilms viability",[3]; 50 µM,87.7 ± 9.8%
same,"Average inhibition %, planktonic cells viability",[3]; 50 µM,81 ± 27.7%
same,inhibition at 10 µM,[3]; [5],2.4 ± 4.3%
same,inhibition at 10 µM,[3]; [6],0%
same,inhibition at 15 µM,[3]; [7],6.2 ± 6%
same,inhibition at 15 µM,[3]; [8],0.6 ± 1%
same,inhibition at 25 µM,[3]; [9],18.2 ± 21.6%
same,inhibition at 25 µM,[3]; [10],40.8 ± 42.7%
same,inhibition at 50 µM,[3]; [13],67.2 ± 13.9%
same,inhibition at 50 µM,[3]; [14],83.1 ± 17.5%
same,MIC,"[3]; pre-exposure, Inactive = no activity up to 50 μM, > = some inhibition but no MIC reached, read-out: MIC A. baumannii NCTC 13423",> 50 µM
same,MIC,"[3]; supplementary molecular formula strings sheet, read-out: MIC (A. baumannii)",> 50 µM
same,"Average inhibition %, biofilms viability",[4]; 50 µM,3.9 ± 6.8%
same,"Average inhibition %, planktonic cells viability",[4]; 50 µM,24.8 ± 10.1%
same,"Average inhibition %, biofilms viability",[4]; 100 µM,1.5 ± 2.6%
same,"Average inhibition %, planktonic cells viability",[4]; 100 µM,15.1 ± 18%
same,"Average inhibition %, biofilms viability",[4]; 150 µM,0.9 ± 1.7%
same,"Average inhibition %, planktonic cells viability",[4]; 150 µM,18.9 ± 31%
same,"Average inhibition %, biofilms viability",[4]; 200 µM,0 ± 0%
same,"Average inhibition %, planktonic cells viability",[4]; 200 µM,27 ± 45%
same,inhibition at 50 µM,[4]; [13],30.1 ± 8.8%
same,inhibition at 50 µM,[4]; [14],16.3 ± 5.3%
same,inhibition at 100 µM,"[4]; 100 µM, read-out: Average inhibition %, biofilms biomass",30.3 ± 0.8%
same,inhibition at 100 µM,"[4]; 100 µM, read-out: Average inhibition %, planktonic cells turbidity",37.1 ± 13.5%
same,inhibition at 150 µM,"[4]; 150 µM, read-out: Average inhibition %, biofilms biomass",27.7 ± 2.1%
same,inhibition at 150 µM,"[4]; 150 µM, read-out: Average inhibition %, planktonic cells turbidity",45.1 ± 17.4%
same,inhibition at 200 µM,"[4]; 200 µM, read-out: Average inhibition %, biofilms biomass",36.2 ± 10.3%
same,inhibition at 200 µM,"[4]; 200 µM, read-out: Average inhibition %, planktonic cells turbidity",53.5 ± 14.1%
same,MIC P. aeruginosa ATCC 9027,"[4]; pre-exposure, Inactive = no activity up to 200 μM, > = some inhibition but no MIC reached",Inactive

# Source: article PMC8296573, “Synthesis and Biological Evaluation of Fingolimod Derivatives as Antibacterial Agents” (ACS Omega, 2021)
